In brackets after ≈: the same amount, converted by molar mass. Read-outs that look alike come from different tables or passages of the source. Each block holds one molecule with its values, some of them ahead of it.
How the values were obtained:
MCF-7 cells = assay: Cell growth inhibition test, MCF-7 cells; format: cell-based, human; details: for IC50 (concentration at which cell growth is inhibited by 50%) / IC50: 4 days; for IC50: Homo sapiens, MCF7, 96 h, read-out: IC50 (concentration at which cell growth is inhibited by 50%)
Procedure: (§1) A cell growth inhibition test was performed to investigate the sensitivity of MCF-7 cells and MCF-7/MycBCRP cells to SN-38. Respective cells were seeded on 12-well plates (Iwaki) in amounts of 30,000 cells/1 mL/well. Subsequently, the drug, diluted with a medium to different concentrations, was added thereto (1 mL per well). The plates were placed in a 5% CO2 incubator and cultivation was performed at 37° C. for […]. Four days after, a cell solution in each well was added to a beaker containing a […] diluent (9.5 mL, To a Medical Electronics Co.). The number of cells was counted by means of a Sysmex CDA-500 automatic cell counter (To a Medical Electronics Co.).
(§2) A cell growth inhibition test was performed to investigate whether estradiol induces any change in sensitivity of MCF-7 cells and MCF-7/MycBCRP cells to SN-38. Respective cells were seeded on 12-well plates (Iwaki) in amounts of 30,000 cells/1 mL/well. Subsequently, the drug, diluted with a medium to different concentrations, was added thereto (1 mL per well). The final concentration of estradiol was adjusted to 0.03 nM or 3 nM. The plates were placed in a 5% CO2 incubator and cultivation was performed at 37° C. for 4 days. Four days after, a cell solution in each well was added to a beaker containing a […] diluent (9.5 mL, To a Medical Electronics Co.). The number of cells was counted by means of a Sysmex CDA-500 automatic cell counter (To a Medical Electronics Co.). In FIG. 4, the cell count is shown by “% of control,” which was obtained by dividing “the cell count as measured when the drug diluted to have different concentrations was added” by “the cell count as measured when no such drug was added.”

MCF-7/MycBCRP cells = assay: Cell growth inhibition test, MCF-7/MycBCRP cells; format: cell-based, human; details: for IC50 (concentration at which cell growth is inhibited by 50%) / IC50: 4 days; for IC50: Homo sapiens, MCF7, 96 h, read-out: IC50 (concentration at which cell growth is inhibited by 50%)
Procedure: The cells were named MCF-7/MycBCRP. […] In each lane, 20 μg of protein was electrophoresed.
as §1, §2

BCRP = details: MCF-7 cells
Procedure: Western blotting was performed to investigate the effect of a steroid hormone and a female hormone on MCF-7, A549, and JEG-3 cells, which intrinsically express BCRP at high level, in terms of the expression level of BCRP. […] Afterwards, expression level of BCRP was determined through the Western blotting technique using an anti-BCRP antibody. In each lane, 30 μg of protein was electrophoresed.

p-glycoprotein = assay: Western blotting of exogenous p-glycoprotein expression in MCF-7/MDR1 cells; format: cell-based, human; details: estradiol 3 nM, 4 days, antibody C219

Structure (SMILES): CCc1c2c(nc3ccc(O)cc13)-c1cc3c(c(=O)n1C2)COC(=O)[C@]3(O)CC [SN-38, 7-ethyl-10-hydroxycamptothecin]
- sensitivity at estradiol 0.03 nM and 3 nM (in words) (MCF-7 cells): almost the same level
- IC50 (concentration at which cell growth is inhibited by 50%) (MCF-7 cells; E2 (estradiol) 0.03 nM): 0.64 ± 0.06 ng/mL (≈ 1.63 nM)
- IC50 (concentration at which cell growth is inhibited by 50%) (MCF-7 cells; E2 (estradiol) 3 nM): 0.50 ± 0.02 ng/mL (≈ 1.27 nM)
- increase in sensitivity at estradiol 3 nM as compared with 0.03 nM (MCF-7/MycBCRP cells): about twice
- IC50 (concentration at which cell growth is inhibited by 50%) (MCF-7/MycBCRP cells; E2 (estradiol) 0.03 nM): 2.13 ± 0.19 ng/mL (≈ 5.43 nM)
- IC50 (concentration at which cell growth is inhibited by 50%) (MCF-7/MycBCRP cells; E2 (estradiol) 3 nM): 1.09 ± 0.09 ng/mL (≈ 2.78 nM)

- IC50 (MCF-7 cells; E2 (estradiol) 0.03 nM): 0.64 ± 0.01 ng/mL (≈ 0.776 nM)
- IC50 (MCF-7 cells; E2 (estradiol) 3 nM): 0.6 ± 0.02 ng/mL (≈ 0.727 nM)
- IC50 (MCF-7/MycBCRP cells; E2 (estradiol) 0.03 nM): 0.68 ± 0.03 ng/mL (≈ 0.824 nM)
- IC50 (MCF-7/MycBCRP cells; E2 (estradiol) 3 nM): 0.6 ± 0.02 ng/mL (≈ 0.727 nM)
Structure (SMILES): CC[C@]1(O)C[C@H]2CN(CCc3c([nH]c4ccccc34)[C@@](C(=O)OC)(c3cc4c(cc3OC)N(C=O)[C@H]3[C@@](O)(C(=O)OC)[C@H](OC(C)=O)[C@]5(CC)C=CCN6CC[C@]43[C@@H]65)C2)C1 [Vincristine, vincristine]

Structure (SMILES): CC/C(=C(/CC)c1ccc(O)cc1)c1ccc(O)cc1 [diethylstilbestrol]
- effect on expression of endogenous BCRP (in words) (BCRP): suppressive effect

Structure (SMILES): C[C@]12CC[C@@H]3c4ccc(O)cc4CC[C@H]3[C@@H]1CC[C@@H]2O [estradiol]
- decrease of expression level of exogenous p-glycoprotein (p-glycoprotein): about 20%

Reference: US20100291242A1, “ANTAGONIST AGAINST TOLERANCE TO ANTICANCER DRUGS” (Yoshikazu SUGIMOTO, priority 2004, published 2010)
